PMC7883289, “Synthesis of Paeonol-Ozagrel Conjugate: Structure Characterization and In Vivo Anti-Ischemic Stroke potential” (Frontiers in Pharmacology, 2021)

System: IL–6, IL–1β, TNF–α
Assay: ELISA assay for inflammatory cytokines in brain tissue of MCAO rats
Format: in vivo
Conditions: versus model group (p < 0.001), paeonol and OS 3 mg/kg, POC 4.5 mg/kg iv, n = 6
Protocol: Male Sprague Dawley (SD) rats weighing among 220 g-230 g (Anhui Medicine University, Hefei, China; certificate number: SCXK20190,003) were housed under ad libitum access to food and water with a standardized light-dark cycle condition (25 ± 2°C, 12-hour light/dark cycle). All the experimental protocols were performed in accordance with the Institutional Animal Care and Use Committee of Anhui University of Chinese Medicine (Animal ethics number: AHUCM-rats-2019001). We used the minimal number of study animals (n = 6 rats in each group for different experiments). The rats were fastened upon the operating table in a supine position after being anesthetized with 2% pelltobarbitalum natricum (50 mg/kg). After disinfection of the skin within close proximity of the operative region, the right common carotid artery (CCA), external carotid artery (ECA) and internal carotid artery (ICA) were exposed with blunt dissection. The CCA was temporarily ligated and the ECA were permanently ligated ([Liu et al., 2016]). […] According to the manufacturer's instructions, the levels of inflammatory cytokines (IL - 6, IL-1β, TNF-α; R&D Systems, Minneapolis, MN, United States) and TXA2 (Wuhan ColorfulGene Biological Technology Co., LTD) were detected using the commercial ELISA kits. The resultant colored products were measured the absorbance at 450 nm. […]

In the case of `COc1ccc(C(C)=O)c(OC(=O)C=Cc2ccc(Cn3ccnc3)cc2)c1` [POC, paeonol-ozagrel conjugate], the “release of inflammatory cytokines (IL–6, IL–1β, TNF–α) in brain tissue” value was “can inhibit the expression of three markers of inflammatory cytokines”.
